Reference: publication PMC6199744, “Development of Chemical Proteomics for the Folateome and Analysis of the Kinetoplastid Folateome” (ACS Infectious Diseases, 2018)

Test system: L. major lysate proteins
Assay: Multitargeted bead mixture chemoproteomics, single concentration competition, proteome-wide
Format: binding

For `NCCOCCOCC(=O)Nc1nc2ncc(CNc3ccc(C(=O)NC(CCC(=O)O)C(=O)O)cc3)nc2c(=O)[nH]1` (stereo not shown) [compound 6], the fold change (protein LMJF.35.0420 40S RIBOSOMAL PROTEIN S3A, PUTATIVE, vehicle control = 1) was 1.15, the “fold change relative to vehicle control” value (protein LMJF.35.1220, SHORT CHAIN DEHYDROGENASE, PUTATIVE) was 1.09 and the “fold change relative to vehicle control” value (protein LMJF.35.1380, MIT[…], BETA SUBUNIT, PUTATIVE) was 1.08. For the same compound, the “fold change vs vehicle control” value (protein LMJF.35.1830 HYPOTHETICAL PROTEIN, CONSERVED) was 0.93, the “fold change vs vehicle control” value (protein LMJF.35.3340 6-phosphogluconate dehydrogenase) was 0.99 and the fold change (protein LMJF.35.3700 GIM5A PROTEIN, PUTATIVE,GLYCOSOMAL MEMBRANE PROTEIN, vehicle control = 1) was 0.99. For the same compound, the “fold change vs vehicle control” value (protein LMJF.35.3760 60S RIBOSOMAL PROTEIN L27A/L29, PUTATIVE) was 0.97, the “fold change relative to vehicle control” value (protein LMJF.35.3840, […] 2 SUBUNIT, PUTATIVE) was 1.14 and the “fold change vs vehicle control” value (protein LMJF.35.3860 T-COMPLEX PROTEIN 1, ETA SUBUNIT, PUTATIVE) was 1. The fold change (protein LMJF.35.4420 MIT[…] TRANSPORTER, PUTATIVE, vehicle control = 1) was 1.05, the “fold change relative to vehicle control” value (protein LMJF.35.4880, HY[…], CONSERVED (TPR repeat, putative)) was 1.34 and the “fold change relative to vehicle control” value (protein LMJF.35.5330, ISOPENTENYL-D[…]-ISOMERASE, PUTATIVE) was 1.14. The “fold change relative to vehicle control” value (protein LMJF.36.0070, STRESS-INDUCIBLE PROTEIN STI1 HOMOLOG) was 1.56, the fold change (protein LMJF.36.0480 HYPOTHETICAL PROTEIN, CONSERVED, vehicle control = 1) was 0.98 and the “fold change vs vehicle control” value (protein LMJF.36.0620 HYPOTHETICAL PROTEIN, CONSERVED) was 0.81. The “fold change vs vehicle control” value (protein LMJF.36.0930 40S RIBOSOMAL PROTEIN S18, PUTATIVE) was 1.15, the “fold change vs vehicle control” value (protein LMJF.36.0990 40S RIBOSOMAL PROTEIN S10, PUTATIVE) was 0.99 and the fold change (protein LMJF.36.1140 SHORT CHAIN 3-HYDROXYACYL-COA DEHYDROGENASE, PUTATIVE, vehicle control = 1) was 0.82. For the same compound, the “fold change relative to vehicle control” value (protein LMJF.36.1260, FRUCTOSE-1,6-BI[…]) was 1.05, the fold change (protein LMJF.36.1340 N-ACETYLTRANSFERASE SUBUNIT NAT1, PUTATIVE, vehicle control = 1) was 0.91 and the “fold change vs vehicle control” value (protein LMJF.36.1650 […] 5 SUBUNIT, PUTATIVE) was 1.03. The “fold change relative to vehicle control” value (protein LMJF.36.2380, STEROL 24-C-METHYLTRANSFERASE, PUTATIVE) was 1, the “fold change relative to vehicle control” value (protein LMJF.36.2660, DIHYDROLIPOAMIDE ACETYLTRANSFERASE PRECURSOR, PUTATIVE) was 1 and the “fold change vs vehicle control” value (protein LMJF.36.2950 SUCCINYL-COA LIGASE GDP-FORMING] BETA-CHAIN, PUTATIVE) was 1.06. For the same compound, the “fold change vs vehicle control” value (protein LMJF.36.3210 14-3-3 PROTEIN-LIKE PROTEIN) was 0.97, the “fold change vs vehicle control” value (protein LMJF.36.3410 SHORT CHAIN DEHYDROGENASE-LIKE PROTEIN) was 1.22 and the fold change (protein LMJF.36.3460 HYPOTHETICAL PROTEIN, CONSERVED (NIPSNAP, putative), vehicle control = 1) was 1.1. The fold change (protein LMJF.36.3580 HYPOTHETICAL PROTEIN, CONSERVED (Protein of unknown function (DUF2009), putative), vehicle control = 1) was 0.92, the fold change (protein LMJF.36.3750 40S RIBOSOMAL PROTEIN S27-1, PUTATIVE, vehicle control = 1) was 0.73 and the “fold change vs vehicle control” value (protein LMJF.36.5010 40S RIBOSOMAL PROTEIN SA, PUTATIVE) was 1.07. For the same compound, the “fold change vs vehicle control” value (protein LMJF.36.5130 HY[…], CONSERVED) was 1.09, the “fold change vs vehicle control” value (protein LMJF.36.5150 HY[…], CONSERVED) was 1.01 and the “fold change relative to vehicle control” value (protein LMJF.36.5380, NADH DEHYDROGENASE, PUTATIVE) was 0.94. For the same compound, the “fold change vs vehicle control” value (protein LMJF.36.5390 PHOSPHORIBOSYLPYROPHOSPHATE SYNTHETASE, PUTATIVE) was 0.99, the “fold change vs vehicle control” value (protein LMJF.36.5620 ISOLEUCYL-TRNA SYNTHETASE, PUTATIVE) was 1.03 and the fold change (protein LMJF.36.6430 PROTEIN TRANSPORT PROTEIN SEC23-LIKE PROTEIN, vehicle control = 1) was 0.83. For the same compound, the “fold change vs vehicle control” value (protein LMJF.36.6760 HY[…], CONSERVED) was 1.01, the “fold change relative to vehicle control” value (protein LMJF.[…], MIT[…] BETA SUBUNIT, PUTATIVE) was 0.95 and the “fold change relative to vehicle control” value (protein LMJF.[…], POLY(A) EXPORT PROTEIN, PUTATIVE) was 1.14. It also gave a fold change (vs vehicle control, protein LINJ.20.0630 CYTIDINE TR[…], PUTATIVE,CTP SYNTHASE, PUTATIVE) of 1.07, a fold change (vs vehicle control, protein LINJ.20.1390 COATOMER BETA SUBUNIT, PUTATIVE) of 0.82 and a fold change (vs vehicle control, protein LMJF.05.1140 VACUOLAR ATPASE SUBUNIT-LIKE PROTEIN) of 0.91. It also gave a fold change (vs vehicle control, protein LMJF.07.1090 DELTA-5 FATTY ACID DESATURASE) of 1, a fold change (vs vehicle control, protein LMJF.09.0220 HYPOTHETICAL PROTEIN, CONSERVED) of 0.97 and a fold change (vs vehicle control, protein LMJF.11.1030 HYPOTHETICAL PROTEIN, CONSERVED) of 0.98. For the same compound, the fold change (vs vehicle control, protein LMJF.14.0640 FATTY ACID ELONGASE, PUTATIVE) was 0.92, the fold change (vs vehicle control, protein LMJF.14.0705 FATTY ACID ELONGASE, PUTATIVE) was 0.88 and the fold change (vs vehicle control, protein LMJF.14.1120 KINESIN K39, PUTATIVE) was 0.71. For the same compound, the fold change (vs vehicle control, protein LMJF.16.1610 PROHIBITIN) was 1.16, the fold change (vs vehicle control, protein LMJF.17.0010 HYPOTHETICAL PROTEIN, CONSERVED) was 0.97 and the fold change (vs vehicle control, protein LMJF.18.1130 RAS-RELATED PROTEIN RAB-5, PUTATIVE) was 0.75. For the same compound, the fold change (vs vehicle control, protein LMJF.19.1420 CYSTEINE PEPTIDASE A (CPA)) was 0.86, the fold change (vs vehicle control, protein LMJF.21.0280 HY[…], CONSERVED) was 0.84 and the fold change (vs vehicle control, protein LMJF.22.1560 40S RIBOSOMAL PROTEIN L14, PUTATIVE) was 0.78. For the same compound, the fold change (vs vehicle control, protein LMJF.23.1220 T-COMPLEX PROTEIN 1, GAMMA SUBUNIT, PUTATIVE) was 1.06, the fold change (vs vehicle control, protein LMJF.24.0370 ASPARTATE AMINOTRANSFERASE, PUTATIVE) was 1.14 and the fold change (vs vehicle control, protein LMJF.25.1770 ENOYL-COA REDUCTASE, PUTATIVE) was 1.08. For the same compound, the fold change (vs vehicle control, protein LMJF.26.0170 60S RIBOSOMAL PROTEIN L7, PUTATIVE) was 0.82, the fold change (vs vehicle control, protein LMJF.26.1550 TRI[…] ALPHA SUBUNIT, MIT[…]-LIKE PROTEIN) was 1.11 and the fold change (vs vehicle control, protein LMJF.26.1610 PROLINE OXIDASE, MIT[…]-LIKE PROTEIN) was 1.02. The fold change (vs vehicle control, protein LMJF.28.1950 X-PRO, DIPEPTIDYL-PEPTIDASE,SERINE PEPTIDASE, CLAN SC, FAMILY S15, PUTATIVE) was 0.94, the fold change (vs vehicle control, protein LMJF.31.1070 BIOTIN/LIPOATE PROTEIN LIGASE-LIKE PROTEIN) was 0.89 and the fold change (vs vehicle control, protein LMJF.32.1370 HYPOTHETICAL PROTEIN, CONSERVED) was 0.94. For the same compound, the fold change (vs vehicle control, protein LMJF.34.0490 IMPORTIN BETA-1 SUBUNIT, PUTATIVE) was 0.96, the fold change (vs vehicle control, protein LMJF.34.4060 UBIQUITIN HYDROLASE, PUTATIVE,CYSTEINE PEPTIDASE, CLAN CA, FAMILY C19, PUTATIVE) was 0.85 and the fold change (vs vehicle control, protein LMJF.36.1600 […] 1 SUBUNIT, PUTATIVE) was 0.96. It also gave a fold change (vs vehicle control, protein LMJF.[…] RIBOSOMAL PROTEIN S7, PUTATIVE) of 1.2.
